Test results from the supplement of paper PMC10307832.

Assays:
Assay in all cases: relative viability (nuclei count vs DMSO), 5 days (fraction); higher = more cells survive
[1] = system: ABC-1
Method in brief: (§1)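 Five library-drug doses in √10 steps were combined with a fixed anchor-drug dose, or a single drug was given alone, by pin tool to lung cancer cell lines in 1536-well plates the day after seeding. Nuclei were stained and counted after 5 days. Relative viability is the nuclei count in treated wells over that in vehicle wells, taken as the median of duplicate plates.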

[2] = system: EPLC-272H
Method in brief: as §1

[3] = system: NCI-H1355
Method in brief: as §1

[4] = system: H3255
Method in brief: as §1

[5] = system: COR-L 105
Method in brief: as §1

[6] = system: NCI-H2085
Method in brief: as §1

[7] = system: NCI-H322M
Method in brief: as §1

[8] = system: NCI-H1975
Method in brief: as §1

[9] = system: NCI-H2087
Method in brief: as §1

[10] = system: HCC-366
Method in brief: as §1

[11] = system: ChaGo-K-1
Method in brief: as §1

[12] = system: CAL-12T
Method in brief: as §1

[13] = system: NCI-H2009
Method in brief: as §1

[14] = system: SK-MES-1
Method in brief: as §1

[15] = system: NCI-H2228
Method in brief: as §1

[16] = system: NCI-H441
Method in brief: as §1

[17] = system: NCI-H1993
Method in brief: as §1

[18] = system: EKVX
Method in brief: as §1

[19] = system: NCI-H2342
Method in brief: as §1

[20] = system: HCC-827
Method in brief: as §1

[21] = system: NCI-H460
Method in brief: as §1

[22] = system: NCI-H1792
Method in brief: as §1

Structure (SMILES): CN1CCN(CCOc2cc(OC3CCOCC3)c3c(Nc4c(Cl)ccc5c4OCO5)ncnc3c2)CC1 [Saracatinib] + Cc1nc(Nc2ncc(C(=O)Nc3c(C)cccc3Cl)s2)cc(N2CCN(CCO)CC2)n1 [Dasatinib] (partner 0.075 µM)
- relative viability ([1]; first compound 0.02 µM): 0.673
- relative viability ([1]; first compound 0.2 µM): 0.591
- relative viability ([1]; first compound 0.6325 µM): 0.616
- relative viability ([1]; first compound 2 µM): 0.514
- relative viability ([2]; first compound 0.02 µM): 0.382
- relative viability ([2]; first compound 0.2 µM): 0.401
- relative viability ([2]; first compound 0.6325 µM): 0.375
- relative viability ([2]; first compound 2 µM): 0.307
- relative viability ([3]; first compound 0.02 µM): 0.716
- relative viability ([3]; first compound 0.2 µM): 0.703
- relative viability ([3]; first compound 0.6325 µM): 0.774
- relative viability ([3]; first compound 2 µM): 0.731
- relative viability ([4]; first compound 0.02 µM): 0.389
- relative viability ([4]; first compound 0.2 µM): 0.303
- relative viability ([4]; first compound 0.6325 µM): 0.344
- relative viability ([4]; first compound 2 µM): 0.267
- relative viability ([5]; first compound 0.02 µM): 0.448
- relative viability ([5]; first compound 0.2 µM): 0.457
- relative viability ([5]; first compound 0.6325 µM): 0.376
- relative viability ([5]; first compound 2 µM): 0.242
- relative viability ([6]; first compound 0.02 µM): 0.286
- relative viability ([6]; first compound 0.2 µM): 0.321
- relative viability ([6]; first compound 0.6325 µM): 0.345
- relative viability ([6]; first compound 2 µM): 0.3
- relative viability ([7]; first compound 0.02 µM): 0.245
- relative viability ([7]; first compound 0.2 µM): 0.196
- relative viability ([7]; first compound 0.6325 µM): 0.211
- relative viability ([7]; first compound 2 µM): 0.215
- relative viability ([8]; first compound 0.02 µM): 0.487
- relative viability ([8]; first compound 0.2 µM): 0.343
- relative viability ([8]; first compound 0.6325 µM): 0.372
- relative viability ([8]; first compound 2 µM): 0.253
- relative viability ([9]; first compound 0.02 µM): 0.807
- relative viability ([9]; first compound 0.2 µM): 0.69
- relative viability ([9]; first compound 0.6325 µM): 0.928
- relative viability ([9]; first compound 2 µM): 0.656
- relative viability ([10]; first compound 0.02 µM): 0.636
- relative viability ([10]; first compound 0.6325 µM): 0.678
- relative viability ([10]; first compound 2 µM): 0.607
- relative viability ([11]; first compound 0.02 µM): 0.732
- relative viability ([11]; first compound 0.2 µM): 0.431
- relative viability ([11]; first compound 0.6325 µM): 0.657
- relative viability ([11]; first compound 2 µM): 0.459
- relative viability ([12]; first compound 0.02 µM): 0.593
- relative viability ([12]; first compound 0.2 µM): 0.451
- relative viability ([12]; first compound 0.6325 µM): 0.47
- relative viability ([12]; first compound 2 µM): 0.294
- relative viability ([13]; first compound 0.02 µM): 0.298
- relative viability ([13]; first compound 0.2 µM): 0.274
- relative viability ([13]; first compound 0.6325 µM): 0.262
- relative viability ([13]; first compound 2 µM): 0.265
- relative viability ([14]; first compound 0.02 µM): 0.4
- relative viability ([14]; first compound 0.2 µM): 0.289
- relative viability ([14]; first compound 0.6325 µM): 0.233
- relative viability ([14]; first compound 2 µM): 0.186
- relative viability ([15]; first compound 0.02 µM): 0.501
- relative viability ([15]; first compound 0.2 µM): 0.556
- relative viability ([15]; first compound 0.6325 µM): 0.576
- relative viability ([15]; first compound 2 µM): 0.372
- relative viability ([16]; first compound 0.02 µM): 0.615
- relative viability ([16]; first compound 0.2 µM): 0.442
- relative viability ([16]; first compound 0.6325 µM): 0.715
- relative viability ([16]; first compound 2 µM): 0.549
- relative viability ([17]; first compound 0.02 µM): 0.589
- relative viability ([17]; first compound 0.2 µM): 0.528
- relative viability ([17]; first compound 0.6325 µM): 0.527
- relative viability ([17]; first compound 2 µM): 0.501
- relative viability ([18]; first compound 0.02 µM): 0.5
- relative viability ([18]; first compound 0.2 µM): 0.363
- relative viability ([18]; first compound 0.6325 µM): 0.622
- relative viability ([18]; first compound 2 µM): 0.364
- relative viability ([19]; first compound 0.02 µM): 0.398
- relative viability ([19]; first compound 0.2 µM): 0.327
- relative viability ([19]; first compound 0.6325 µM): 0.305
- relative viability ([19]; first compound 2 µM): 0.295
- relative viability ([20]; first compound 0.02 µM): 0.3
- relative viability ([20]; first compound 0.2 µM): 0.136
- relative viability ([20]; first compound 0.6325 µM): 0.22
- relative viability ([20]; first compound 2 µM): 0.131
- relative viability ([21]; first compound 0.02 µM): 0.587
- relative viability ([21]; first compound 0.2 µM): 0.418
- relative viability ([21]; first compound 0.6325 µM): 0.603
- relative viability ([21]; first compound 2 µM): 0.46
- relative viability ([22]; first compound 0.02 µM): 0.824
- relative viability ([22]; first compound 0.2 µM): 0.566
- relative viability ([22]; first compound 0.6325 µM): 0.894
- relative viability ([22]; first compound 2 µM): 0.711
